Experimental findings from patent US9376449B2, “Indole carboxamide derivative” (Astellas Pharma Inc., priority 2012, dated 2016) are described below.

The structures appear in SMILES notation. Some results are limits rather than exact numbers.

A short description of data set [1]: CNS penetration: CSF to plasma unbound concentration ratio in rat. As to conditions: CSF and plasma (unbound), iv; for Kp uu at 0.25 h: 15 minutes after intravenous administration, CCSF/Cplasma,u, read-out: Kp,uu,CSF,iv15min. Format: in vivo. As to the method:
Test Example 4 Test for Evaluating CNS Penetration
(1) Measurement of Unbound Fraction (fp) in Rat Plasma
A test compound (100 μg/mL, 50% acetonitrile solution) at 1% (v/v) with respect to the amount of the plasma was added to rat plasma, and dispensed to a sample for a supernatant and a sample for the plasma. The sample for a supernatant was ultracentrifuged at 436,000×g and 37° C. for 140 minutes, and the sample for the plasma was incubated at 37° C. for 140 minutes.
After 140 minutes, the sample for a supernatant after the ultracentrifugation and the sample for the plasma were taken, and mixed with the blank plasma or the blank supernatant, respectively. Acetonitrile including an internal standard material was added to each of the samples, and after the centrifugation at 2150×g and 4° C. for 10 minutes the supernatant was injected into LC-MS/MS.
The unbound fraction in the plasma was calculated by the following equation.
(wherein fp: an unbound fraction in the plasma and D: a dilution rate of the plasma. fu,app=peak area ratio of supernatant sample/peak area ratio of the plasma sample, and peak area ratio=peak area of test compound/peak area of internal standard material).
(2) The CSF to Plasma Unbound Concentration Ratio in Rat
A 50% acetonitrile solution and an acetonitrile including internal standard material was added to the collected plasma or CSF. After centrifugation at 4° C. and 2150×g for 10 minutes, the supernatant was injected into LC-MS/MS, and the total concentration of the test compound in the plasma (Cplasma,t) and the concentration of the test compound in CSF (CCSF) were obtained. The unbound concentration in the plasma (Cplasma,u) of the test compound and the CSF-to plasma unbound concentration ratio (Kp,uu,CSF) of the test compound was calculated by the following equation.
(§1) Ex represents Example No. of the test compound.

The subject of a further data set is isolated urethra. The data set can be described thus: Isolated urethra contractile action. Set-up: species or system rat. To be noted: for activation at 1 µM: test compound at 1 μM, contractile response by 10 μM phenylephrine as 100%, SD female rat urethra, read-out: Isolated urethra contraction (%). How it is done:
Test Example 2 Isolated Urethra Contractile Action
(1) Evaluation Test on Urethra Contractile Action of Test Compound Using Isolated Urethra
The urethra was isolated from an SD female rat having a body weight of 100 to 500 g. The isolated urethra was incised longitudinally to give a rectangular strip specimen having a width of about 3 mm, which was suspended in the circular muscle direction in 10 mL of a tissue bath filled with a Krebs-Henseleit solution (pH 7.4). The Krebs-Henseleit solution was bubbled with 95% O2 and 5% CO2, and kept at 37° C. The resting tension was set to 0.5 g to record the isometric contraction. After the resting tension was stabilized, contraction was elicited by the addition of 10 μM phenylephrine. After washing and stabilizing, the test compound was added cumulatively to a final concentration of −12 to −5 log M to measure a contractile response. By taking the contractile response by 10 μM phenylephrine as 100%, the ratio of the contractile response in the concentration of the test compound at 1 μM was calculated.
as §1

A further data set relates to urethral pressure. The data set can be described thus: Effect of test compound on urethral pressure in anesthetized rats. Format: in vivo, rat. As to conditions: for Increment value in the urethra pressures (mmHg): 0.1 mg/kg intravenously, urethane-anesthetized SD female rats; for urethra pressure increasing action: dose of 0.1 mg/kg. The source says:
Test Example 3 Test to Evaluate Effect of Test Compound on Urethral Pressure
It has been reported that an increase in the urethra pressure is useful for the treatment of urinary incontinence, particularly stress urinary incontinence (for example, Drugs, 64, 14, 1503-1516 (2004)). In order to confirm whether the compound of the present invention increases the urethra pressure and thus is useful for the treatment of urinary incontinence, particularly stress urinary incontinence, the following tests were carried out.
SD female rats were anesthetized with urethane and subjected to laparotomy. Then, the bladder apex was incised and a catheter was inserted from the bladder apex. Further, the catheter tip was ligated and fixed to be located in the proximal urethra portion. The catheter was connected to a pressure transducer and an infusion pump. Further, a catheter for administrating the compound was fitted into the femoral vein. Physiological saline was continuously infused into the urethra and the perfusion pressure in the urethra was measured. After the urethral pressure was stabilized, the test compound that had been dissolved in physiological saline, or physiological saline including 5% dimethylacetamide and 0.5% Cremophor was administered intravenously at 0.1 mg/kg, and a change in urethral pressures was measured.
Further, the results of administering an active metabolite of midodrine (ST-1059: purchased from CHEMIZON) (J. Urology, 118, 980-982 (1977)) which is an α1 adrenoceptor agonist and has an effect on stress urinary incontinence in rat doses (0.01 mg/kg) presumed to correspond to the clinical doses are referenced and shown in the Tables below. The increment value in the urethra pressures of ramelteon and the Example compounds of the present invention at the time of administration are shown in Table 4. Ex represents Example No. of the test compound.

As to `CNC(=O)c1[nH]c2ccc(OC)cc2c1CCNC(=O)C(F)F` [Ex 2, 3-{2-[(difluoroacetyl)amino]ethyl}-5-methoxy-N-methyl-1H-indole-2-carboxamide], the Kp uu at 0.25 h in data set [1] is 0.11. The activation at 1 µM with isolated urethra was 167%. Besides, the “Increment value in the urethra pressures (mmHg)” value (from here on “Increment value … (mmHg)”) in the data set with urethral pressure was found to be 10.6 ± 3.5 mmHg. For the same molecule, the “urethra pressure increasing action” value in the data set on urethral pressure (in words) is on record as “good urethra pressure increasing action”.

On to `CCC(=O)NCC[C@@H]1CCc2ccc3c(c21)CCO3` [Ramelteon, reference compound], for which the Kp uu at 10 min in data set [1] (10 minutes after the intravenous administration) was > 1. Further, in the data set with isolated urethra (isolated rat urethra, in words), the urethra contractile action entry is listed as “good urethra contractile action”. The activation at 1 µM in the data set on isolated urethra worked out at 242%. Besides, the “increment value in the urethra pressures compared with ST-1059” value in the data set on urethral pressure (0.1 mg/kg i.v. versus ST-1059 0.01 mg/kg, in words) was “equal to or more than that of ST-1059”. For the same molecule, the “Increment value … (mmHg)” value with urethral pressure is 11.1 ± 1.7 mmHg.

With `CNC(=O)c1[nH]c2cc(F)c(OC)cc2c1CCNC(C)=O` [Ex 17], in data set [1], the Kp uu at 0.25 h came to 0.08. The activation at 1 µM with isolated urethra came to 132%. In addition, the “Increment value … (mmHg)” value in the data set on urethral pressure stood at 9.0 ± 1.0 mmHg. Moreover, the “urethra pressure increasing action” value with urethral pressure (in words) is “good urethra pressure increasing action”.
